Several values for one entry are separate records, joined by “and”; a condition that tells them apart may be missing. Equal entries are not always repeated.
What was measured:
H1 (hr) [1] = biological target: T1, H1 (hr) (Homo sapiens, UniProt P35367); experiment: H1 (hr) MDS binding assay; details: Table 7A; Ki in nM
T1 construct: Novascreen, MDS, Cerep (assay providers)
Description: (§1) Binding assays were performed using various sleep-inducing agents and derivatives selected from those listed in Table 1 in competitive binding assays with known standards for the H1 histamine receptor, and the M1, M2, and M3 muscarinic receptors, alpha 1 and alpha 2 receptors, D1 and D2 receptors, 5HT2a, 5HT2b, 5HT2c, 5HT2c, and 5HT7 receptors.
(§2) The histamine H1 assays are described in Chang, et al., Heterogeneity of Histamine H1-Receptors: Species Variation in [^3H]Mepyramine Binding of Brain Membranes. Journal of Neurochemistry. 32: 1653-1663 (1979); Martinez-Mir, M. I., Pollard, H., Moreau, J., et al. Three Histamine Receptors (H1, H2, and H3) Visualized in the Brain of Human and Non-Human Primates. Brain Res. 526: 322-327 (1990); Haaksma, E. E. J., Leurs, R. and Timmerman, H. Histamine Receptors: Subclasses and Specific Ligands. Pharmac. Ther. 47: 73-104 (1990). The muscarinic assays are described in Buckley, N. J., Bonner, T. I., Buckley, C. M., and Brann, M. R. Antagonist Binding Properties of Five Cloned Muscarinic Receptors Expressed in CHO-K1 Cells. Mol. Pharmacol. 35: 469-476 (1989). The assays were performed according to the preceding articles, with the following modifications. Chemical reagents in the following were obtained from Sigma, St. Louis, Mo.

H1 (hr) [2] = biological target: T1, H1 (hr); experiment: H1 (hr) Cerep binding assay; details: Table 7A; Ki in nM
Description: as §1, §2

5HT2b (h) = 5HT2b (h) (Homo sapiens, UniProt P41595); experiment: 5HT2b (h) binding assay; details: Table 7B; unit inferred
5HT7 (h) = 5HT7 (h) (Homo sapiens, UniProt P34969); experiment: 5HT7 (h) binding assay; details: Table 7B; unit inferred
Description: as §1
In vitro binding assays are used to determine 5HT2a binding. These binding assays measure the ability of benzisoxazole analogs to displace known standards from the 5HT2a, 5HT2b, 5HT2c, and 5HT7. A decrease in the binding of the compounds to the M1-M3 receptors, relative to the binding of the compound to the 5HT2a receptor, is an indication of the greater specificity of the compound for the 5HT2a receptor over the muscarinic receptor. […] 5HT2a binding is determined as described for example in British Journal of Pharmacology (1995) 115, 622-628.

D3 = D3 (Homo sapiens, UniProt P35462); experiment: D3 binding; details: Table 7A, printed in column D2 (h); unit inferred
Chain of D3 (P35462 whole entry): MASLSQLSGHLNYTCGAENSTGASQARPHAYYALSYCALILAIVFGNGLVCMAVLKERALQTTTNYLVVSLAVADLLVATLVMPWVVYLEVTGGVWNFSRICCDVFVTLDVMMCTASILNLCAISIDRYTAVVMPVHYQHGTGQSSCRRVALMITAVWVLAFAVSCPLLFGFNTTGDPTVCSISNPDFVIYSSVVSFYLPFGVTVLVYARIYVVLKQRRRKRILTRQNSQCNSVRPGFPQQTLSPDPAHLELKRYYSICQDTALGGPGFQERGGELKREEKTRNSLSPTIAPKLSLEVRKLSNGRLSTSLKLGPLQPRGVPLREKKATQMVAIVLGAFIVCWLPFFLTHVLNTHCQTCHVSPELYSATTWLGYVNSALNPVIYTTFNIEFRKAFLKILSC

Chain of 5HT2b (h) (P41595 whole entry): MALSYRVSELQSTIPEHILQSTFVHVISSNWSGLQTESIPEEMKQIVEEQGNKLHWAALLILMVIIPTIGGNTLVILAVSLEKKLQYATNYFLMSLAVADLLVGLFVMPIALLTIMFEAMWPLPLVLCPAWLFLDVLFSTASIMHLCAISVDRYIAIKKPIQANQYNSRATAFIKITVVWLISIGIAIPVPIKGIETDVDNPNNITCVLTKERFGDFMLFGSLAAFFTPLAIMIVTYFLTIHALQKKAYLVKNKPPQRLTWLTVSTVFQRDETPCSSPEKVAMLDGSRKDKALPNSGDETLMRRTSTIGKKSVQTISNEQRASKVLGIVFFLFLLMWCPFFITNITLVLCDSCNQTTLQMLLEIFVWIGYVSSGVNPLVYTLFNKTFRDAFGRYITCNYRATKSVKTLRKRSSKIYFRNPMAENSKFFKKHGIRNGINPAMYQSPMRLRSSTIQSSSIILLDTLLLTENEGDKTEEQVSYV
T1 sequence (P35367 whole entry): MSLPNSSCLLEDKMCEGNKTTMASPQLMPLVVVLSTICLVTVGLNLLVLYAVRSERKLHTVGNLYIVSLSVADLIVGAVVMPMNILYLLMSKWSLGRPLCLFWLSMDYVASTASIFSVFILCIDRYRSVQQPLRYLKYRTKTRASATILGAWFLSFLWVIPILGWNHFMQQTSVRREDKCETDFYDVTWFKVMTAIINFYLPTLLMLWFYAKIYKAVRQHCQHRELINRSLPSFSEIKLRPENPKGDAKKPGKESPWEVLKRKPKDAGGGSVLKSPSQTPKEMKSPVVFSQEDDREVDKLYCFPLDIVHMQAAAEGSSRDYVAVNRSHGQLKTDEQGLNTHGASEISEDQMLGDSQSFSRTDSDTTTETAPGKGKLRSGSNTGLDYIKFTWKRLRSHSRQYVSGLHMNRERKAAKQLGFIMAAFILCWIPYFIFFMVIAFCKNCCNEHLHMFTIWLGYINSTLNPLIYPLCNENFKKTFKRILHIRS
Chain of 5HT7 (h) (P34969 whole entry): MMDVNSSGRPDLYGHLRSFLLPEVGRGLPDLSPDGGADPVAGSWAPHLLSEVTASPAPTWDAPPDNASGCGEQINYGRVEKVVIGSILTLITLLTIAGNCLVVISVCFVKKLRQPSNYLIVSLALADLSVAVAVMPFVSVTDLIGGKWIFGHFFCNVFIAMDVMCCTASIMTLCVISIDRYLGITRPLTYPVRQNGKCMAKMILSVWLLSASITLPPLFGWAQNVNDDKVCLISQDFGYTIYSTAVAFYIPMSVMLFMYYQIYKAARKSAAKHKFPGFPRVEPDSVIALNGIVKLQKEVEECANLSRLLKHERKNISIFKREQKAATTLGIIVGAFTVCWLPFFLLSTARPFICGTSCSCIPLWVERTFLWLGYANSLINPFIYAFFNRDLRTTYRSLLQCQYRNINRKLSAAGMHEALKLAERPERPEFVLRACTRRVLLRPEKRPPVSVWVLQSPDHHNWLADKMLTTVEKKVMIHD

SMILES	Ki (H1 (hr) [1]) [nM]	Ki (H1 (hr) [2]) [nM]	Ki (5HT2b (h))	Ki (5HT7 (h)) [nM]	Ki (D3) [nM]
Cc1cc2c(s1)Nc1ccccc1N=C2N1CCN(CC(C)(C)C(=O)O)CC1 [Compound 46]	44	210	151 nM and 270 nM	4080	
CCc1cc2c(s1)Nc1ccccc1N=C2N1CCN(CC(C)(C)C(=O)O)CC1 [Compound 90]					226
